The values that follow come from patent publication US20060094020A1, “Methods and compositions for determining resistance or susceptibility of HIV-1 to stavudine” (priority 2004, published 2006).

The assay deals with HIV-1 (patient-derived viruses comprising the K65R mutation in RT). The assay can be described thus: Resistance test vector (PHENOSENSE) phenotypic drug susceptibility assay, luciferase readout, single round of replication in 293 cells. It is filed as cell-based. Particulars: 1.7 fold is the threshold for d4T resistance. The protocol: In preferred embodiments, the phenotypic analysis of d4T resistance or susceptibility is performed using PHENOSENSE™ (ViroLogic Inc., South San Francisco, Calif.). See Petropoulos et al., 2000, Antimicrob. Agents Chemother. 44:920-928; U.S. Pat. Nos. 5,837,464 and 6,242,187. PHENOSENSE™ is a phenotypic assay that achieves the benefits of phenotypic testing and overcomes the drawbacks of previous assays. Because the assay has been automated, PHENOSENSE™ provides high throughput methods under controlled conditions for determining replication capacity of a large number of individual viral isolates.
The assay can be performed by first co-transfecting host cells with RTV DNA and a plasmid that expresses the envelope proteins of another retrovirus, for example, amphotropic murine leukemia virus (MLV). Following transfection, viral particles can be harvested from the cell culture and used to infect fresh target cells in the presence of varying amounts of anti-viral drug(s). The completion of a single round of viral replication in the fresh target cells can be detected by the means for detecting replication contained in the vector. […] The susceptibility of an HIV, or population of HIV, can be determined by measuring the concentration of antiviral drug at which the luciferase activity detected is half-maximal. […]

Structures are written as SMILES.

In the case of `Cc1cn([C@H]2C=C[C@@H](CO)O2)c(=O)[nH]c1=O` [d4T, stavudine], the “IC50 fold higher than wild-type” value (most of the viruses comprising only the K65R mutation in RT (202 viruses)) is listed as “less than 1.7 fold” and the “IC50 fold higher than wild-type” value (some of the viruses comprising only the K65R mutation in RT (202 viruses)) is given as “greater than 1.7 fold”.
